Patent publication US20070219825A1, “METHOD OF MANAGING AND REDUCING SIDE EFFECTS ASSOCIATED WITH EXPOSURE TO A DRUG” (priority 2005, published 2007)

Columns and labels:
[1] = placebo-controlled trials, liver aminotransferases; assay type: in vivo, patients
Source text: (§1) As described herein, an exemplary restricted drug distribution program for the distribution of sitaxsentan sodium has been developed, in accordance with the restricted distribution methods provided above, to minimize the risk of side effects associated with exposure to sitaxsentan sodium. Sitaxsentan sodium is an endothelin receptor antagonist (ETRA) used to treat people diagnosed with pulmonary arterial hypertension (PAH). […] However, along with the many benefits, there are many risks associated with exposure to sitaxsentan sodium. For instance, ETRA's, as a class, have been associated with liver function abnormalities. […] In addition, ETRA's, as a class, have consistently produced teratogenic effects in animals. […] Although the effects of sitaxsentan sodium on human development are not known, it is likely to produce major birth defects if used by pregnant women. Sitaxsentan sodium also is contraindicated for those taking cyclosporine A (used for treatment of psoriasis and rheumatoid arthritis, and to prevent rejection of organ transplants).

metabolism of warfarin = details: concomitant warfarin; cited from earlier work
[2] = test system: pulmonary arterial hypertension (PAH); experiment: clinical studies in subjects with PAH; assay type: in vivo
Source text: as §1

rat = experiment: reproductive toxicology studies, dosing during pregnancy; assay type: in vivo
Source text: as §1

Cc1cc2c(cc1CC(=O)c1sccc1S(=O)(=O)Nc1onc(C)c1Cl)OCO2 [sitaxsentan sodium]
patients with at least a three-fold increase of liver aminotransferases (hepatoxicity) [1]: about two
effect on metabolism of warfarin (metabolism of warfarin): antagonize the metabolism of warfarin
safety and efficacy in the treatment of PAH [2]: demonstrated safety and efficacy
reproductive toxicology: effect of dosing during pregnancy (rat): several fetal malformations
